Measured values: US20260034112A1, “MULTI-CYCLIC IRAK1 AND IRAK4 INHIBITING COMPOUNDS AND USES THEREOF” (CHILDREN'S HOSPITAL MEDICAL CENTER, priority 2022, published 2026)

Test system: THP1 cells
Format: cell-based, human
Settings: CA-4948 vs DMSO in THP1 cells

## Cc1cc(-c2nc(C(=O)Nc3cc4oc(N5CCOCC5)nc4nc3N3CC[C@@H](O)C3)co2)ccn1 [CA-4948, emavusertib]
  Log(FC) of gene LOC101929243: 0.7647
  Log(FC) of gene LOC101929264: 0.8417
  Log(FC) of gene LOC101929280: 0.7936
  Log(FC) of gene LOC101929661: 0.748
  Log(FC) of gene LOC101929747: 0.6127
  Log(FC) of gene LOC101929814: −0.8463
  Log(FC) of gene LOC102467073: 0.73
  Log(FC) of gene LOC102723589: 0.8153
  Log(FC) of gene LOC102723616: 0.7122
  Log(FC) of gene LOC102723714: 0.6674
  Log(FC) of gene LOC102723959: 0.9881
  Log(FC) of gene LOC102723975: 1.408
  Log(FC) of gene LOC102724098: −0.6399
  Log(FC) of gene LOC102724169: 0.726
  Log(FC) of gene LOC102724217: 0.6865
  Log(FC) of gene LOC102724235: 0.7375
  Log(FC) of gene LOC102724248: 0.652
  Log(FC) of gene LOC102724409: 1.429
  Log(FC) of gene LOC102724528: −0.8481
  Log(FC) of gene LOC102724545: 0.8513
  Log(FC) of gene LPAR2: 0.7255
  Log(FC) of gene M1AP: 0.7754
  Log(FC) of gene MAMDC4: 0.628
  Log(FC) of gene MBLAC1: −0.6134
  Log(FC) of gene MDGA1: 0.7307
  Log(FC) of gene METTL12: 0.6315
  Log(FC) of gene MFI2-AS1: 0.5997
  Log(FC) of gene MGC12916: −0.9124
  Log(FC) of gene MGC16142: 0.5952
  Log(FC) of gene MIR570: 1.064
  Log(FC) of gene MIR1244-1: 0.6309
  Log(FC) of gene MIR3187: 1.121
  Log(FC) of gene MROH6: 0.8417
  Log(FC) of gene MYLK-AS1: 1.091
  Log(FC) of gene MYO7B: 0.6068
  Log(FC) of gene NGFR: 0.8097
  Log(FC) of gene NOL3: 0.6401
  Log(FC) of gene NPFF: 0.6633
  Log(FC) of gene NPIPA3: 1.643
  Log(FC) of gene NPIPA8: 0.8183
  Log(FC) of gene ORM1: 0.6834
  Log(FC) of gene PAPPA2: 0.8397
  Log(FC) of gene PAQR6: 0.6274
  Log(FC) of gene PAX8: −0.6687
  Log(FC) of gene PCBP3: 0.5937
  Log(FC) of gene PCOLCE2: −0.6424
  Log(FC) of gene PDE5A: 0.8121
  Log(FC) of gene PDPN: 0.7486
  Log(FC) of gene PITX2: 0.6882
  Log(FC) of gene POLN: 1.016
  Log(FC) of gene POTEE: 1.077
  Log(FC) of gene PPIEL: 0.6279
  Log(FC) of gene PPP1R13L: 0.6598
  Log(FC) of gene PPP1R32: 0.5902
  Log(FC) of gene PROB1: 0.6297
  Log(FC) of gene PRR22: 1.272
  Log(FC) of gene PRSS53: 0.79
  Log(FC) of gene PSMG3-AS1: 0.6249
  Log(FC) of gene PTGER1: 0.6218
  Log(FC) of gene QRICH2: 0.9066
  Log(FC) of gene RAPGEFL1: 0.6118
  Log(FC) of gene RARRES3: 0.6342
  Log(FC) of gene RASSF8-AS1: −0.6459
  Log(FC) of gene RCN3: 0.6431
  Log(FC) of gene RIMS2: −0.6856
  Log(FC) of gene RN7SK: −0.7805
  Log(FC) of gene RN7SL1: −0.6652
  Log(FC) of gene RNU2-2P: −3.126
  Log(FC) of gene RNU86: 0.6578
  Log(FC) of gene RNU105A: −0.7199
  Log(FC) of gene RP3-476K8.3: 0.6781
  Log(FC) of gene RP11-261C10.3: −0.7243
  Log(FC) of gene RP11-307C12.11: 0.6268
  Log(FC) of gene RP11-344E13.3: 0.712
  Log(FC) of gene RP11-454P21.1: 0.5869
  Log(FC) of gene RP11-540A21.2: −0.8218
  Log(FC) of gene RPPH1: −1.864
  Log(FC) of gene RPS18P9: 0.9157
  Log(FC) of gene RPSAP9: −0.6976
  Log(FC) of gene RUFY4: 0.9698
  Log(FC) of gene SAMD5: −0.6977
  Log(FC) of gene SAMD13: −0.6418
  Log(FC) of gene SAP25: 0.962
  Log(FC) of gene SARM1: 0.783
  Log(FC) of gene SCART1: 1.38
  Log(FC) of gene SCN8A: 0.7836
  Log(FC) of gene SCXB: 0.8721
  Log(FC) of gene SEC31B: 0.7359
  Log(FC) of gene SEMA3B: 0.6963
  Log(FC) of gene SEMA3C: −0.6821
  Log(FC) of gene SEMG1: −0.6203
  Log(FC) of gene SERPINB2: −0.6225
  Log(FC) of gene SIGLEC16: 0.7305
  Log(FC) of gene SIM1: −0.8741
  Log(FC) of gene SLC2A14: 0.5944
  Log(FC) of gene SLC7A5P2: 0.8202
  Log(FC) of gene SLC7A11: −0.9711
  Log(FC) of gene SLC22A20: 0.7923
  Log(FC) of gene SLC25A5-AS1: −0.5981
  Log(FC) of gene SLCO2B1: −0.6999
  Log(FC) of gene SLFNL1: 0.599
  Log(FC) of gene SLFNL1-AS1: 0.7053
  Log(FC) of gene SMA4: −0.6311
  Log(FC) of gene SNORD3A: −1.579
  Log(FC) of gene SNORD30: 1.062
  Log(FC) of gene SNORD79: 0.5858
  Log(FC) of gene SNX32: 0.6555
  Log(FC) of gene SPATA41: 0.6171
  Log(FC) of gene SPATC1: 1.175
  Log(FC) of gene SPRED1: −0.6296
  Log(FC) of gene SPTBN5: 1.272
  Log(FC) of gene ST13P4: −0.623
  Log(FC) of gene STX18-AS1: 0.8594
  Log(FC) of gene STXBP5-AS1: 0.6561
  Log(FC) of gene SYDE2: −0.6236
  Log(FC) of gene SYTL2: 0.7254
  Log(FC) of gene TCAM1P: 0.6669
  Log(FC) of gene TEKT4P2: 0.8324
  Log(FC) of gene TESPA1: 0.724
  Log(FC) of gene TLR5: 0.7065
  Log(FC) of gene TMEM9B-AS1: 0.8758
  Log(FC) of gene TMEM86B: 0.6481
  Log(FC) of gene TMEM145: 0.9943
  Log(FC) of gene TMEM150A: −0.8108
  Log(FC) of gene TMEM175: 0.6594
  Log(FC) of gene TMEM191A: 0.6824
  Log(FC) of gene TMEM254-AS1: 0.767
  Log(FC) of gene TMEM255A: −0.5904
  Log(FC) of gene TMPRSS13: 0.6639
  Log(FC) of gene TNFAIP8L2-SCNM1: −1.749
  Log(FC) of gene TNXB: 1.806
  Log(FC) of gene TP53I3: 0.7187
  Log(FC) of gene TPD52L1: 0.7014
  Log(FC) of gene TRIM72: 0.5946
  Log(FC) of gene TSKU: −0.6402
  Log(FC) of gene TSPEAR-AS1: 0.5855
  Log(FC) of gene TTC4: −0.6304
  Log(FC) of gene TUBA1A: 0.5916
  Log(FC) of gene TXLNB: 0.8051
  Log(FC) of gene UCN: 1.177
  Log(FC) of gene UCP3: 0.6963
  Log(FC) of gene ULK4P1: −0.9282
  Log(FC) of gene UNC5CL: 0.8031
  Log(FC) of gene VAMP5: 0.6392
  Log(FC) of gene VWA7: 0.8656
  Log(FC) of gene WDFY3-AS2: 0.6617
  Log(FC) of gene WNK4: 1.507
  Log(FC) of gene WT1-AS: 0.6396
  Log(FC) of gene YJEFN3: 1.024
  Log(FC) of gene ZCWPW2: −0.722
  Log(FC) of gene ZDHHC11: 1.406
  Log(FC) of gene ZNF284: −0.5982
  Log(FC) of gene ZNF491: 0.7713
  Log(FC) of gene ZNF891: −0.7965
  Log(FC) of gene ZP3: 0.9339
  Log(FC) of gene ZSWIM8-AS1: 0.9316
